Assay [1] relates to C. difficile (CD) ATCC 43255. The assay is described as follows: Hamster model of CDI, oral administration. The settings on record: for Survival prolonged more than untreated animals: formulated in HPCD, gavage; for Mean survival time: ORI 100 mg/kg (HPCD), VA 50 mg/kg/day, oral, 5 days. Format: in vivo, Syrian golden hamsters. Here is the method:
C. difficile (CD) ATCC 43255 was used in all experiments. CD spores were prepared for the infection by incubating CD cells on blood agar plate at 37° C. anaerobically for 7 days, to promote spore formation. The CD colonies were resuspended in phosphate buffered saline (PBS) and mixed with an equal volume of 100% ethanol for one hour. The spores were centrifuged, resuspended in PBS, aliquoted, and frozen at −20° C. Spores were diluted in PBS for oral inoculation into hamsters.
All studies were performed in accordance with protocols that were approved by the Institutional Animal Care and Use Committee. […] One day later (Day 0), animals were infected orally with […] CD spores.
1) Starting on Day 1 post-infection (PI), a single dose of either vehicle, vancomycin (VA) (50 mg/kg/day), or oritavancin (ORI) formulated in 10% hydroxypropyl β-cyclodextrin (HPCD) (10, 50 or 100 mg/kg/day) was administered to the hamsters (n=10/group) by gavage for 5 days.
Detection of CD cells and toxins were detected in the caecal contents of animals at both the experimental and clinical endpoints. Presence of CD toxins (toxin A and B) were detected by using the CD TOX A/B IITM kit (Techlab) as described by the manufacturer. Limit of detection was ≧0.8 ng/mL for Toxin A and ≧2.5 ng/mL of Toxin B. Total viable cells (TC) (both vegetative and spore forms) were enumerated by serially diluting the caecal content by 10 fold in PBS containing 2% oxyrase (Oxyrase Inc). The caecal content dilutions were plated on Brazier's CCEY lysozyme agar (Lab160) without egg yolk. CD spores were counted by treating caecum samples with an equal volume of pure ethanol. The limit of detection (LOD) was 1.47 and 1.77 Log 10 CFU/g caecal content for TC and spores, respectively.
Data were analyzed by Kaplan-Meier and Log rank Wilcoxon tests survival analysis by using GraphPad Prism (version 5.00). A p-value lower than 0.05 (p<0.05) was considered to indicate statistical significance.

For assay [2], the system named is C. difficile vegetative cultures and spores. The experiment in a line: Spiral gradient endpoint analysis MIC. Format: cell-based. The method, then: C. difficile PCR ribotypes 001, 106 and 027 were inoculated onto Columbia blood agar and incubated anaerobically (37° C.) for 10 d. Growth was harvested into sterile saline and alcohol shocked in an equal volume of 100% ethanol for 1 h. Alcohol-shocked spore suspensions were mixed by vortexing and sonicated for 5 minutes at room temperature. C. difficile phase-bright (non-germinated) spores were separated from phase-dark (germinated) spores and cellular debris by density gradient centrifugation (4000 rpm 15 minutes) following layering onto 50% (v/v in phosphate buffered saline) Urografin 370 (Schering, Germany). The density gradient centrifugation step was performed twice. Pellets of purified spores were re-suspended in sterile saline (1 mL per 10 Columbia blood agar plates harvested). Percentage phase-bright spores, phase-dark spores and vegetative cells were recorded using phase-contrast microscopy (×100 magnification).
A spiral plater (WASP2, Don Whitley Scientific, UK) was used to apply a logarithmic antibiotic gradient onto the surface of pre-dried (37° C. 20 minutes) Brazier's agar (pH 7). Agar with logarithmic antimicrobial gradients applied to their surface remained at room temperature for 1 h to allow the antimicrobial agent to adsorb into the agar. C. difficile vegetative cultures and spores (˜10^7 cfu/mL) were inoculated onto the agar surface (FIG. 1) with a sterile cotton swab and incubated anaerobically (37° C., 24 h). D-values were measured (in mm) and converted to MICs (Paton, J. H.1990. Int J Exp Clin Chemother. 9, 31-38).

Assay [3] deals with C. difficile PCR ribotype 027 spores. The experiment in a line: Phase-contrast microscopy of spore germination/outgrowth. Format: cell-based. The settings on record: 10 mg/L for 2 h, washed 3x in PBS. The method, then:
C. difficile spores were also exposed to 10 mg/L antimicrobial for 2 h, washed 3× in sterile PBS, re-suspended and inoculated into Brazier's broth medium (pH 7). Samples were removed at 2, 4, 6, 24, 32 and 48 h. Slides were viewed under phase-contrast microscopy and percentages of phase-bright spores, phase-dark spores and vegetative cells were recorded (FIG. 4).
Statistical analyses were performed by transforming percentage data using an Arcsin Transformation and analysed using a Wilcoxon signed rank test. P<0.05 was considered statistically significant. Supra-MIC concentrations of all antimicrobials prevented outgrowth but not germination of C. difficile spores.

In assay [4] the test system is Staphylococcus aureus NCTC 6571. The experiment in a line: Growth on antibiotic-exposed cellulose acetate filters (Example 3C). The assay is classed as cell-based. The settings on record: overnight culture. The method, then: One mL solutions (containing no C. difficile spores) were processed as in Experiment 2B and filters placed onto Braziers CCEY agar. Onto the filters were inoculated 2×20 μL of:
c) Staphylococcus aureus NCTC 6571 (Oxford strain, overnight culture).
Growth/no growth was recorded following anaerobic incubation.

The test system of assay [5] is C. difficile (CD) ATCC 43255. The assay is described as follows: Hamster model of CDI, oral administration. The assay is classed as in vivo, Syrian golden hamsters. The settings on record: for Toxins A and B in caecal contents: ORI 100 mg/kg (PEG400) on Day 20 PI, VA 50 mg/kg once daily.

“Also recorded” adds a separate entry of the source. Bounds are passed on as bounds.

With `CN[C@H](CC(C)C)C(=O)N[C@H]1C(=O)N[C@@H](CC(N)=O)C(=O)N[C@H]2C(=O)N[C@H]3C(=O)N[C@H](C(=O)N[C@H](C(=O)O)c4cc(O)cc(O)c4-c4cc3ccc4O)[C@H](O[C@H]3C[C@](C)(N)[C@@H](O)[C@H](C)O3)c3ccc(c(Cl)c3)Oc3cc2cc(c3O[C@@H]2O[C@H](CO)[C@@H](O)[C@H](O)[C@H]2O[C@H]2C[C@](C)(NCc3ccc(-c4ccc(Cl)cc4)cc3)[C@@H](O)[C@H](C)O2)Oc2ccc(cc2Cl)[C@H]1O` [oritavancin, N-(4-(4-chlorophenyl)benzyl)A82846B], the “Survival prolonged more than untreated animals” value in assay [1] (10 mg/kg once daily for 5 days) was 9 days; in assay [1] (50 mg/kg once daily for 5 days) it was 13 days; in assay [1] (100 mg/kg once daily for 5 days), over 17 days. In addition, the “Efficacy compared to VA on Day 12 PI” value in assay [1] (100 mg/kg, HPCD) is “superior efficacy”. Also, the Mean survival time in assay [1] is 17 days. Moreover, the “MICs against C. difficile spores lower than against vegetative cells” value in assay [2] (Brazier's agar pH 7, 24 h) is 5-13 fold. Moreover, the “Outgrowth of C. difficile spores prior-exposed to antimicrobial” value in assay [3] is “much lower than control; also recorded: significantly inhibited”. The “Growth of S. aureus NCTC 6571 on filters through which antibiotic had been filtered” value in assay [4] is recorded as “grew”. Moreover, the “Survival up to 20 days PI” value in assay [5] (100 mg/kg once daily oral from Day 2 for 5 days, formulated in PEG400) was “All the animals treated with ORI survived”. Further, in assay [5] (20 days PI, formulated in PEG400, LOD 1.47 (TC) and 1.77 (spores) Log 10 CFU/g), the “CD vegetative and spore cells in caecal content” value is given as “undetectable”. Besides, in assay [5], the “Toxins A and B in caecal contents” value is “undetectable”.

As to `CN[C@H](CC(C)C)C(=O)N[C@H]1C(=O)N[C@@H](CC(N)=O)C(=O)N[C@H]2C(=O)N[C@H]3C(=O)N[C@H](C(=O)N[C@H](C(=O)O)c4cc(O)cc(O)c4-c4cc3ccc4O)[C@H](O)c3ccc(c(Cl)c3)Oc3cc2cc(c3O[C@@H]2O[C@H](CO)[C@@H](O)[C@H](O)[C@H]2O[C@H]2C[C@](C)(N)[C@H](O)[C@H](C)O2)Oc2ccc(cc2Cl)[C@H]1O` [vancomycin], in assay [1], the Mean survival time is 12 days. In addition, in assay [2] (data not shown), the “MICs for C. difficile vegetative cells versus spores” value is on record as “did not differ substantially”. Also, the “Outgrowth of C. difficile spores prior-exposed to antimicrobial” value in assay [3] is “not observed”. Besides, in assay [4], the “Growth of S. aureus NCTC 6571 on filters through which antibiotic had been filtered” value is “grew”. The “Toxins A and B in caecal contents” value in assay [5] was “High level”.

The values are drawn from patent publication US8629100B2, “Method of inhibiting clostridium difficile by administration of oritavancin” (The Medicines Company, priority 2007, dated 2014).
